The values that follow are results of earlier work, collected in US20210145036A1 (priority 2018, published 2021).

For this data set the following is noted: in vivo.

Take “(1S,5S)-2,6,6-Trimethylbicyclo[3.1.1]hept-2-ene ((−)-α-Pinene)”: the human pulmonary uptake is listed as 60%.
